Reference: article PMC3657749 (Journal of medicinal chemistry, 2013)
Blank lines part the entries; values can stand above or below the molecule they belong to.

Assays:
[1] = system: DU-145 (androgen independent prostate cancer); assay: Cell viability assay; assay type: cell-based; settings: for DU-145 anti-proliferative activity (result in words): highest tested concentration 20 μM
[2] = target: HDAC 1 (Homo sapiens, UniProt Q13547); assay: HDAC inhibition by SAMDI mass spectrometry, HDAC 1; assay type: biochemical; settings: maximum tested concentration 10 μM
Chain of HDAC 1 (Q13547 whole entry): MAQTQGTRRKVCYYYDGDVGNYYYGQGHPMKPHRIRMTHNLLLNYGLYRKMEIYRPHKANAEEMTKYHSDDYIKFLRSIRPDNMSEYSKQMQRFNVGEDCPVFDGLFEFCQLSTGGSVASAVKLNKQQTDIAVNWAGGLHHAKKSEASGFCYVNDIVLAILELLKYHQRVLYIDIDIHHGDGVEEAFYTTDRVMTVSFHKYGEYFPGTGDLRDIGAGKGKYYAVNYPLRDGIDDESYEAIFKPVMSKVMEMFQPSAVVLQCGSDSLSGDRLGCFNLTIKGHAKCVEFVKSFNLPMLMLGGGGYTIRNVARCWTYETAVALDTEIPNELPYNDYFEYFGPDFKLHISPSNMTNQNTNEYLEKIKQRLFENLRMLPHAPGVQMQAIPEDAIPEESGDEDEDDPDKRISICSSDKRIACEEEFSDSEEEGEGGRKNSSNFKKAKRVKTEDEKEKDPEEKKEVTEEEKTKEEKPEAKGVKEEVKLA

[3] = system: T-cell leukemia cell line Jurkat; assay: Cell viability assay; assay type: cell-based
[4] = system: LNCaP (androgen dependent prostate cancer); assay: Cell viability assay; assay type: cell-based
[5] = target: T1, HDAC 8 (Homo sapiens, UniProt Q9BY41); assay: HDAC inhibition by SAMDI mass spectrometry, HDAC 8; assay type: biochemical; settings: for HDAC 8 inhibition (result in words): SAMDI, maximum tested concentration 10 μM; for HDAC 8 inhibition relative to 7c: fold more active than 7c
T1 sequence (Q9BY41 1-377): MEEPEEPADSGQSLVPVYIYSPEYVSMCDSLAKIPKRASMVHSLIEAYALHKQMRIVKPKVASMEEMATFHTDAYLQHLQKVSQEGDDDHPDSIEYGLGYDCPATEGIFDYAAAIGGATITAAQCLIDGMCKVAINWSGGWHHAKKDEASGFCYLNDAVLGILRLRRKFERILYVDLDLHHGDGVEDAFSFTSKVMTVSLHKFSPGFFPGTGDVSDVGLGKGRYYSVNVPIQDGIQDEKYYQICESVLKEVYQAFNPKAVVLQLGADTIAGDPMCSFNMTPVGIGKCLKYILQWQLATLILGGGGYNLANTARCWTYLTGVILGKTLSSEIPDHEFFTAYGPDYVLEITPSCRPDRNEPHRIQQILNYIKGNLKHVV

[6] = target: T2, HDAC 6 (Homo sapiens, UniProt Q9UBN7); assay: HDAC inhibition by SAMDI mass spectrometry, HDAC 6; assay type: biochemical; settings: maximum tested concentration 10 μM
T2 sequence (Q9UBN7 1-1215): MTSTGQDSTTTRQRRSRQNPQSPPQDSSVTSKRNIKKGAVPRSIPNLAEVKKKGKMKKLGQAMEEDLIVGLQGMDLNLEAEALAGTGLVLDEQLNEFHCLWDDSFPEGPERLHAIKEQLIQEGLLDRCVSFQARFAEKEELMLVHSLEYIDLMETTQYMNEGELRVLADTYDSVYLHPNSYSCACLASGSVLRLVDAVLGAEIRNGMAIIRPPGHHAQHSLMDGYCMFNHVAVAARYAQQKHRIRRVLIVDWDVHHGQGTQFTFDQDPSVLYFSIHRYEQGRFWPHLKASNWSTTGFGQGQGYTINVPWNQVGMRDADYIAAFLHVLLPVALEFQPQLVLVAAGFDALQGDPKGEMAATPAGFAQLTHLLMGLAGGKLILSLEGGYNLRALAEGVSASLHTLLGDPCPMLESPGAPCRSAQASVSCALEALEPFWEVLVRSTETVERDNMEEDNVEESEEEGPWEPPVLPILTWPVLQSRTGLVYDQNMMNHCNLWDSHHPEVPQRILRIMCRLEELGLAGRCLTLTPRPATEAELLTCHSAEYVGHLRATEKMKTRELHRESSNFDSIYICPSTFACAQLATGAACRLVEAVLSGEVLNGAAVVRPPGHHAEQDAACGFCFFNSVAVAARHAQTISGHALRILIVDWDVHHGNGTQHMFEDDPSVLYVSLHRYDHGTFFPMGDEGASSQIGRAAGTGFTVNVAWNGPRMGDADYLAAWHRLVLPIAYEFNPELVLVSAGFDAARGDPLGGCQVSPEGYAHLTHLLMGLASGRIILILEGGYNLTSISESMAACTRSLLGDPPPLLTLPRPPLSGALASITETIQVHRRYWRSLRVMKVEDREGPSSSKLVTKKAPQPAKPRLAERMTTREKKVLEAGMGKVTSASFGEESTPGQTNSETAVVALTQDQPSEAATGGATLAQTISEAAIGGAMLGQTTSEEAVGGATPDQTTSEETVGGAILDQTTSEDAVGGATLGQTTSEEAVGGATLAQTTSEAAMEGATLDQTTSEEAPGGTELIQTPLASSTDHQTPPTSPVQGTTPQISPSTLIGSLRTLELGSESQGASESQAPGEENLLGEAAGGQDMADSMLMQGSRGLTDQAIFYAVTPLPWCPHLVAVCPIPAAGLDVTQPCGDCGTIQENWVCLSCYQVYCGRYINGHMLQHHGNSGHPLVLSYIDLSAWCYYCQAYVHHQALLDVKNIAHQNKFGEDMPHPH

[7] = system: tubulin acetylation (HDAC6 inhibition) in LNCaP cell line; assay: Western blot analysis of tubulin acetylation; assay type: cell-based; settings: LNCaP cells, 4 hours, at IC50 concentration and at 20 μM
[8] = system: Jurkat J.gamma1 (mutant Jurkat cell line, no detectable PLCγ1 activity); assay: Cell viability assay; assay type: cell-based; settings: for IC50: Homo sapiens, Jurkat, 72 h, read-out: Cellular IC50(μM) Jurkat J.gammal
[9] = system: Jurkat J.gamma1; settings: mutant Jurkat cell line without detectable PLCγ1 activity; cited from earlier work

- HDAC 8 inhibition relative to 7c [5]: about 2 fold
Compound: N#Cc1ccc(-c2ccc(Cn3cccc(O)c3=S)cc2)cc1 [Compound 12a, 1-(4-Cyano-(1,1'-biphenylmethyl))-3-hydroxyoxypyridin-2-thione]

- HDAC 6 inhibition (result in words) [6]: abrogation of HDAC 6 inhibition
Compound: N#Cc1cccc(-c2ccc(Cn3cccc(O)c3=S)cc2)c1 [Compound 12b, 1-(3-Cyano-(1,1'-biphenylmethyl))-3-hydroxyoxypyridin-2-thione]

- HDAC 8 inhibition (result in words) [5]: loss of HDAC 8 inhibition
Compound: CN(C)c1ccc(-c2ccc(Cn3cccc(O)c3=S)cc2)cn1 [Compound 12h]

- HDAC 8 inhibition (result in words) [5]: inactive
- HDAC 6 inhibition (result in words) [6]: inactive
- HDAC 1 inhibition (result in words) [2]: inactive
Compound: O=c1c(O)cccn1Cc1cn(-c2ccccc2)nn1 [Compound 15a, 1-Phenyltriazolylmethyl-3-hydroxypyridin-2-one]

The next lines start with the molecule.

Compound: Oc1ccc[nH]c1=S [Compound 3-HPT, 3-hydroxypyridin-2-thione]
- IC50 ([1]; Homo sapiens, DU-145, read-out: Cellular IC50(μM) DU-145): > 20 µM
- DU-145 anti-proliferative activity (result in words) [1]: inactive
- HDAC 1 inhibition (result in words) [2]: no inhibition
- Jurkat anti-proliferative activity (result in words) [3]: inactive
- IC50 ([3]; Homo sapiens, Jurkat, 72 h, read-out: Cellular IC50(μM) Jurkat): > 20 µM
- LNCaP anti-proliferative activity (result in words) [4]: inactive
- IC50 ([4]; Homo sapiens, LNCaP, read-out: Cellular IC50(μM) LNCaP): > 20 µM

Compound: Cn1cccc(O)c1=O [Compound 5a, 1-Methyl-3-hydroxypyridin-2-one]
- HDAC 8 inhibition (result in words) [5]: failed to inhibit
- HDAC 6 inhibition (result in words) [6]: failed to inhibit
- HDAC 1 inhibition (result in words) [2]: failed to inhibit

Compound: O=c1c(O)cccn1Cc1ccccc1 [Compound 5b, 1-Benzyl-3-hydroxypyridin-2-one]
- HDAC 8 inhibition (result in words) [5]: failed to inhibit
- HDAC 6 inhibition (result in words) [6]: failed to inhibit
- HDAC 1 inhibition (result in words) [2]: failed to inhibit

Compound: O=c1c(O)cccn1Cc1ccc(-c2ccccc2)cc1 [Compound 5c, 1-(1,1'-Biphenylmethyl)-3-hydroxypyridin-2-one]
- HDAC 8 inhibition (result in words) [5]: failed to inhibit
- HDAC 6 inhibition (result in words) [6]: failed to inhibit
- HDAC 1 inhibition (result in words) [2]: failed to inhibit

Compound: Oc1cccn(Cc2ccccc2)c1=S [Compound 7b, 1-Benzyl-3-hydroxypyridin-2-thione]
- HDAC 1 inhibition (result in words) [2]: neither 7b nor 7c possess any measurable activity

Compound: Oc1cccn(Cc2ccc(-c3ccccc3)cc2)c1=S [Compound 7c, 1-(1,1'-Biphenylmethyl)-3-hydroxypyridin-2-thione]
- HDAC 1 inhibition (result in words) [2]: neither 7b nor 7c possess any measurable activity

Compound: Cc1ccccc1-c1ccc(Cn2cccc(O)c2=S)cc1 [Compound 12f, 1-(2-Methyl-(1,1'-biphenylmethyl))-3-hydroxyoxypyridin-2-thione]
- DU-145 anti-proliferative activity (result in words) [1]: weak activity
- tubulin acetylation (Western blot) [7]: increase in tubulin acetylation
- Jurkat J.gamma1 anti-proliferative activity (result in words) [8]: non-cytotoxic
- IC50 [8]: > 20 µM

Compound: CN(C)c1ccc(-c2ccc(Cn3cccc(O)c3=S)cc2)cc1 [Compound 12g, 1-(4-Dimethylamino-(1,1'-biphenylmethyl))-3-hydroxyoxypyridin-2-thione]
- HDAC 8 inhibition relative to 7c [5]: about 2 fold
- HDAC 6 inhibition (result in words) [6]: loss of HDAC 6 inhibition
- Jurkat J.gamma1 anti-proliferative activity (result in words) [8]: devoid of anti-proliferative activity
- IC50 [8]: > 20 µM

Compound: Oc1cccn(Cc2cn(-c3ccccc3)nn2)c1=S [Compound 17a, 1-Phenyltriazolylmethyl-3-hydroxypyridin-2-thione]
- HDAC 8 inhibition relative to 7c [5]: 2 to 3 fold
- HDAC 6 inhibition (result in words) [6]: only marginally inhibitory
- Jurkat J.gamma1 anti-proliferative activity (result in words) [8]: devoid of anti-proliferative activity
- IC50 [8]: > 20 µM

Compound: COc1ccc(Cn2ccc3ccc(C(=O)NO)cc32)cc1 [PCI-34051]
- apoptosis induction in Jurkat J.gamma1 [9]: lost its ability to induce apoptosis

Compound: O=C(CCCCCCC(=O)Nc1ccccc1)NO [SAHA, suberoylanilide hydroxamic acid, reference compound]
- tubulin acetylation (Western blot) [7]: concentration dependent tubulin hyperacetylation
- Jurkat J.gamma1 anti-proliferative activity (result in words) [8]: non-cytotoxic
